# Source: patent US20080090827A1 (Artesian Therapeutics, Inc., priority 2004, published 2008)
# Legend:
# [1] = target: T1, human recombinant beta-1 receptors expressed in CHO-REX16 cells (Homo sapiens, UniProt P08588); test: Radioligand binding for β1-receptor affinity ([125I](−)Iodocyanopindolol); conditions: at a concentration of 100 nM; read-out: inhibition of β1-adrenergic binding
# T1 construct: expressed in transfected cells; host or cells: CHO-REX16 cells
# Method: β1-Adrenergic receptor binding was measured in human recombinant beta-1 receptors expressed in CHO-REX16 cells, using [^125I] (−) Iodocyanopindolol (2000 Ci/mmol) as the radioligand, as described in Kalaria et al., J. Neurochem. 53: 1772-81 (1998), and Minneman et al., Mol. Pharmacol. 16: 34-46 (1979). Compounds 17d, 21, 31b, 46a, and 46b each inhibited greater than 25% β1-adrenergic binding at a concentration of 100 nM.
# [2] = target: Human platelet cyclic AMP phosphodiesterase (PDE3) (Homo sapiens, UniProt Q14432); test: In vitro assay for measuring cAMP PDE-3 inhibitory activity; type: biochemical; conditions: 10 min at 30° C., n=3
# Method: Three assays each were performed for each of five test compound concentrations, the mean of the determinations (n=3) at each concentration was plotted, and IC50 values were determined graphically.
# [3] = target: T2, human recombinant beta-2 receptors expressed in CHO-WT21 cells (Homo sapiens, UniProt P07550); test: Radioligand binding for β2-receptor affinity ([125I](−)Iodocyanopindolol); conditions: at a concentration of 100 nM, read-out: inhibition of β1-adrenergic binding (as printed, β2-receptor assay)
# T2 construct: expressed in transfected cells; host or cells: CHO-WT21 cells
# Method: β2-Adrenergic receptor binding was measured in human recombinant beta-2 receptors expressed in CHO-WT21 cells, using [^125I] (−) Iodocyanopindolol (2000 Ci/mmol) as the radioligand, as described in Kalaria et al. (1998) and Minneman et al. (1979), supra. Compounds 17d, 21, 31b, 46a, and 46b each inhibited greater than 25% β1-adrenergic binding at a concentration of 100 nM.
# T2 sequence (P07550 whole entry): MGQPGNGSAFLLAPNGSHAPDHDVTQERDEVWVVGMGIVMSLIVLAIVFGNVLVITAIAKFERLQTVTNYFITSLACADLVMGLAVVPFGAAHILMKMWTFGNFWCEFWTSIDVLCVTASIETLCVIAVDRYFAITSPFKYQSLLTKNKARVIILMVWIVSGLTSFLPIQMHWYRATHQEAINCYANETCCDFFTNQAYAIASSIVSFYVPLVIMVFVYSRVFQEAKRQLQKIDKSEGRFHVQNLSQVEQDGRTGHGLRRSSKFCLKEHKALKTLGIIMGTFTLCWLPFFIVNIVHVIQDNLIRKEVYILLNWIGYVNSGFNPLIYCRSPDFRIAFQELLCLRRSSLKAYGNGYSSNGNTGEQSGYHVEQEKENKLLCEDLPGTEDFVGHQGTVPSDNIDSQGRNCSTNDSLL
# T1 sequence (P08588 whole entry): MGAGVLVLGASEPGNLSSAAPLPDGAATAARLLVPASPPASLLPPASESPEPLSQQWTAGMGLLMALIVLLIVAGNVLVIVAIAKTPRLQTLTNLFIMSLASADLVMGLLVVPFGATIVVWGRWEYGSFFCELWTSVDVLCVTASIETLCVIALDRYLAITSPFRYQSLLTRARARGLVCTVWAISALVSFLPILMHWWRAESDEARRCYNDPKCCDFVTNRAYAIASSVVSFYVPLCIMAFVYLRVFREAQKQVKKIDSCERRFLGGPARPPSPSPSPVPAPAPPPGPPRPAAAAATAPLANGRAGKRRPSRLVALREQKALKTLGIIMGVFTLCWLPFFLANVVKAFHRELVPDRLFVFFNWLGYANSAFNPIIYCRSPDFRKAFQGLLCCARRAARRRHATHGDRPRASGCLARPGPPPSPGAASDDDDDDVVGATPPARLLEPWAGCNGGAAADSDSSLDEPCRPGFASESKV
# Human platelet cyclic AMP phosphodiesterase (PDE3), sequence (Q14432 whole entry): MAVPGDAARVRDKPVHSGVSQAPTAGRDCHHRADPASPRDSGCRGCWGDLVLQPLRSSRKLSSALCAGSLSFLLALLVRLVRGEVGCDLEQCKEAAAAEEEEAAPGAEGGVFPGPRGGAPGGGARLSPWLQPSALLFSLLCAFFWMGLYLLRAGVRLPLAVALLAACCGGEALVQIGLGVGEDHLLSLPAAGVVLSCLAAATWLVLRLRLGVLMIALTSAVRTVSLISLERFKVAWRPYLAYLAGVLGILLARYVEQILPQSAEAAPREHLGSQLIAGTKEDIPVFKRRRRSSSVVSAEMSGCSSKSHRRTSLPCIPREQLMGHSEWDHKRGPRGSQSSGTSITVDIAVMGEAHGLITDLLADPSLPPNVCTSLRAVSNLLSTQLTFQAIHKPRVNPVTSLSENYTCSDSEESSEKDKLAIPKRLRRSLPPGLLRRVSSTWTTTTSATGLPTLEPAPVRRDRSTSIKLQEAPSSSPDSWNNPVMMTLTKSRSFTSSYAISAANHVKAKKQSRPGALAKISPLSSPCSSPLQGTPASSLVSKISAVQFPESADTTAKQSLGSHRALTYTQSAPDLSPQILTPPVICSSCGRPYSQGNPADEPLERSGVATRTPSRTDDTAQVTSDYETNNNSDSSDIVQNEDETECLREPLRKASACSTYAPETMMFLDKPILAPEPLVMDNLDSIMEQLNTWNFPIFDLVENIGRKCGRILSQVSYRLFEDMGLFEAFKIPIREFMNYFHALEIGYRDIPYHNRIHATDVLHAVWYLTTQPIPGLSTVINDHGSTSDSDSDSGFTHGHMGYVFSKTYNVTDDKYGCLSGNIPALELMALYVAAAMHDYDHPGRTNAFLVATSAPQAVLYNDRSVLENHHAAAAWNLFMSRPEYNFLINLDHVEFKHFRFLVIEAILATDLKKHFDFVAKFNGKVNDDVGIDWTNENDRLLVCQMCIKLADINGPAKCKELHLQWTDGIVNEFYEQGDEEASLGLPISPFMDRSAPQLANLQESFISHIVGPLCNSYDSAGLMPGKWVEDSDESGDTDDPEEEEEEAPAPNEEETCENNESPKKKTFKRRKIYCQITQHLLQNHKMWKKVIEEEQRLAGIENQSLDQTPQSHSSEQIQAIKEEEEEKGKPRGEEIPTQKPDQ
inhibition at 0.1 µM [1] [%],IC50 [2] [nM],inhibition at 0.1 µM [3] [%],Structure (SMILES)
> 25,< 1000,> 25,"CC(C)(C)NC[C@H](O)COc1ccc(CCNC(=O)COc2ccc(C3=NNC(=O)CC3)cc2)cc1 [Compound 21, N-{2-[4-((S)-3-tert-butylamino-2-hydroxy-propoxy)-phenyl]-ethyl}-2-[4-(6-oxo-1,4,5,6-tetrahydro-pyridazin-3-yl)-phenoxy]-acetamide]"
> 25,< 100,> 25,"CC(C)(C)NC[C@H](O)COc1ccc(CCOCCCOc2ccc(C3=NNC(=O)CC3)cc2Cl)cc1 [Compound 46b, 6-[4-(3-{2-[4-((S)-3-tert-Butylamino-2-hydroxy-propoxy)-phenyl]-ethoxy}-propoxy)-3-chloro-phenyl]-4,5-dihydro-2H-pyridazin-3-one]"
> 25,< 100,> 25,"CC(C)NC[C@H](O)COc1ccc(CCOCCCOc2ccc(C3=NNC(=O)CC3)cc2Cl)cc1 [Compound 46a, 6-[3-Chloro-4-(3-{2-[4-((S)-2-hydroxy-3-isopropylamino-propoxy)-phenyl]-ethoxy}-propoxy)-phenyl]-4,5-dihydro-2H-pyridazin-3-one]"
,< 1000,,"CC(C)NCC(O)COc1ccc(COCCCOc2ccc(C3=NNC(=O)CC3)cc2Cl)cc1 (stereo not shown) [Compound 31a, 6-(3-Chloro-4-{3-[4-(2-hydroxy-3-isopropylamino-propoxy)-benzyloxy]-propoxy}-phenyl)-4,5-dihydro-2H-pyridazin-3-one]"
,< 1000,,"CC(C)NCC(O)COc1ccc(CNC(=O)COc2ccc(C3=NNC(=O)CC3)cc2Cl)cc1 (stereo not shown) [Compound 17a, 2-[2-Chloro-4-(6-oxo-1,4,5,6-tetrahydro-pyridazin-3-yl)-phenoxy]-N-[4-(2-hydroxy-3-isopropylamino-propoxy)-benzyl]-acetamide]"
,< 100,,"CC(C)NC[C@H](O)COc1ccc(CC(=O)NCCNC(=O)COc2ccc(C3=NNC(=O)CC3)cc2Cl)cc1 [Compound 12b, N-(2-{2-[2-Chloro-4-(6-oxo-1,4,5,6-tetrahydropyridazin-3-yl)-phenoxy]-acetylamino}-ethyl)-2-(4-((S)-2-hydroxy-3-isopropylamino-propoxy)-phenyl]-acetamide]"
,< 1000,,"CC(C)(C)NC[C@H](O)COc1ccc(C(=O)NCCNC(=O)COc2ccc(C3=NNC(=O)CC3)cc2Cl)cc1 [Compound 13, 4-((S)-3-tert-Butylamino-2-hydroxy-propoxy)-N-(2-{2-[2-chloro-4-(6-oxo-1,4,5,6-tetrahydropyridazin-3-yl)-phenoxy]-acetylamino}-ethyl)-benzamide]"
> 25,< 100,> 25,"CC(C)(C)NCC(O)COc1ccc(COCCCOc2ccc(C3=NNC(=O)CC3)cc2Cl)cc1 (stereo not shown) [Compound 31b, 6-(4-{3-[4-(3-tert-Butylamino-2-hydroxy-propoxy)-benzyloxy]-propoxy}-3-chloro-phenyl)-4,5-dihydro-2H-pyridazin-3-one]"
,< 100,,"CC(C)NCC(O)COc1ccc(CCOc2ccc(C3=NNC(=O)CC3)cc2Cl)cc1 (stereo not shown) [Compound 37a, 6-(3-Chloro-4-{2-[4-(2-hydroxy-3-isopropylamino-propoxy)-phenyl]-ethoxy}-phenyl)-4,5-dihydro-2H-pyridazin-3-one]"
,< 1000,,"CC(C)(C)NCC(O)COc1ccc(CNC(=O)COc2ccc(C3=NNC(=O)CC3)cc2Cl)cc1 (stereo not shown) [Compound 17b, N-[4-(3-tert-Butylamino-2-hydroxy-propoxy)-benzyl]-2-[2-chloro-4-(6-oxo-1,4,5,6-tetrahydro-pyridazin-3-yl)-phenoxy]-acetamide]"
,< 100,,"CC(C)NCC(O)COc1ccc(CCNC(=O)COc2ccc(C3=NNC(=O)CC3)cc2Cl)cc1 (stereo not shown) [Compound 17c, 2-[2-Chloro-4-(6-oxo-1,4,5,6-tetrahydro-pyridazin-3-yl)-phenoxy]-N-{2-[4-(2-hydroxy-3-isopropylamino-propoxy)-phenyl]-ethyl}-acetamide]"
,< 100,,"CC(C)(C)NCC(O)COc1ccc(CCOc2ccc(C3=NNC(=O)CC3)cc2Cl)cc1 (stereo not shown) [Compound 37b, 6-(4-{2-[4-(3-tert-Butylamino-2-hydroxy-propoxy)-phenyl]-ethoxy}-3-chloro-phenyl)-4,5-dihydro-2H-pyridazin-3-one]"
> 25,< 100,> 25,"CC(C)(C)NCC(O)COc1ccc(CCNC(=O)COc2ccc(C3=NNC(=O)CC3)cc2Cl)cc1 (stereo not shown) [Compound 17d, N-{2-[4-(3-tert-Butylamino-2-hydroxy-propoxy)-phenyl]-ethyl}-2-[2-chloro-4-(6-oxo-1,4,5,6-tetrahydro-pyridazin-3-yl)-phenoxy]-acetamide]"

Structure (SMILES),inhibition at 0.1 µM [1] [%],IC50 [2] [nM],inhibition at 0.1 µM [3] [%]
CC(C)NC[C@H](O)COc1ccc(CCC(=O)NCCNC(=O)COc2ccc(C3=NNC(=O)CC3)cc2Cl)cc1 [Compound 7],,< 100,
CC(C)NC[C@H](O)COc1ccc(C(=O)NCCNC(=O)COc2ccc(C3=NNC(=O)CC3)cc2Cl)cc1 [Compound 12a],,< 1000,
